Ki data for one compound are collected here from paper PMC7695167, “Targeting the Interaction between the SH3 Domain of Grb2 and Gab2” (Cells, 2020).

SMILES strings stand for the structures.

The assay has as its target T1, C-SH3 Grb2 (C-terminal SH3 domain of Grb2) (Homo sapiens, UniProt P62993).
T1 construct: isolated C-terminal SH3 domain, recombinant, expressed and purified as previously reported
Kind of assay: tryptophan fluorescence, titration of preformed C-SH3:Gab2 peptide complex. Type of assay: binding. To be noted: read-out: apparent inhibition constant.

T1 sequence (P62993 159-217 limits assumed): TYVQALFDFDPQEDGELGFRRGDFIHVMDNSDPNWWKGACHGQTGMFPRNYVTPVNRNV

`CCOc1cc(CNCCc2ccc(OC)cc2)ccc1OCc1cccc(Cl)c1` [AN-465-J137-985, N-(4-((3-Chlorobenzyl)oxy)-3-ethoxybenzyl)-2-(4-methoxyphenyl)ethan-1-amine]: the Ki was about 5 µM.
